The record followed here is paper PMC3870792 (Neuropsychopharmacology, 2013).

This test concerns the target GABAA receptor α2 subunit (α2β3γ2 GABAAR) (Rattus norvegicus, UniProt P18508+P23576). The test can be described thus: [3H]Ro […]-4513 displacement on HEK293 membranes. The test is classed as binding.

Structures are written as SMILES.

GABAA receptor α2 subunit (α2β3γ2 GABAAR), sequence (P23576 29-451): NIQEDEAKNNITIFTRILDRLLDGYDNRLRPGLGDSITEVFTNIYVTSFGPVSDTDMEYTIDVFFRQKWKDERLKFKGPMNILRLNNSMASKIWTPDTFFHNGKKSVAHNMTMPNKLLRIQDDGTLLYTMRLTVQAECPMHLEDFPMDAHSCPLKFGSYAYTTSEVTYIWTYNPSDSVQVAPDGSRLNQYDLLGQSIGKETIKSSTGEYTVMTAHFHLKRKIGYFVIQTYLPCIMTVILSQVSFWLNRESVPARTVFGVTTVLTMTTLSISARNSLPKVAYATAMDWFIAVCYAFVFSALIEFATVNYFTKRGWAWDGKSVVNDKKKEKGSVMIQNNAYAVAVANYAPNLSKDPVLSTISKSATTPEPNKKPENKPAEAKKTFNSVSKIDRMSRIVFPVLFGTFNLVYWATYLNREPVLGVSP
GABAA receptor α2 subunit (α2β3γ2 GABAAR), sequence (P18508 39-466): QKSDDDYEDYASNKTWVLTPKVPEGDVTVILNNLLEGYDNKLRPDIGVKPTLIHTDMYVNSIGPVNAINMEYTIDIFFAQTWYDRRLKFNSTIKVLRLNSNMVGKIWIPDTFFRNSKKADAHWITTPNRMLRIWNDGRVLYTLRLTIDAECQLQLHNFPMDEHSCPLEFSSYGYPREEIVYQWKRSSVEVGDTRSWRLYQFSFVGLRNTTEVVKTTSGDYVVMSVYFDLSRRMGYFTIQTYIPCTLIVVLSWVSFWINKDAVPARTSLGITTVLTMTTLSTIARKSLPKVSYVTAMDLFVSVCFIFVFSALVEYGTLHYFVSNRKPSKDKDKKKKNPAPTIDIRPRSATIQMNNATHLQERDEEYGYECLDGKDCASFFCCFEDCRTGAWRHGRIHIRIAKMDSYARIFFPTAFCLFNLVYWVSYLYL
GABAA receptor α2 subunit (α2β3γ2 GABAAR), sequence (P63079 26-473 partner): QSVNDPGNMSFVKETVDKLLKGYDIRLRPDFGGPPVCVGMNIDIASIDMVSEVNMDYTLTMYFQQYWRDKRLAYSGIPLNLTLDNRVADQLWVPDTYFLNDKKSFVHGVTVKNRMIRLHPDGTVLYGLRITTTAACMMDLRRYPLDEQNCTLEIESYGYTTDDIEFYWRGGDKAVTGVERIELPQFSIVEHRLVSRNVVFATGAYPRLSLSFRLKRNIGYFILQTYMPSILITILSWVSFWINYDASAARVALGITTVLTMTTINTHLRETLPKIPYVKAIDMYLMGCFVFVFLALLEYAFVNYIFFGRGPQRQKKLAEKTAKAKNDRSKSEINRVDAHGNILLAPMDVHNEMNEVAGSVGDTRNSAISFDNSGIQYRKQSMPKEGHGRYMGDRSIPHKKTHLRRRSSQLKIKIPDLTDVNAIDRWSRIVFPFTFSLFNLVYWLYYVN

`C#Cc1ccc2c(c1)C(c1ccccn1)=NCc1c(C(=O)OCC)ncn1-2` [compound 2 in Rivas et al, 2009, ethyl 8-ethynyl-6-(pyridin-2-yl)-4H-benzo[f]imidazo[1,5-a][1,4]diazepine-3-carboxylate] showed a Ki of 221 ± 22 nM.

For orientation: Ki means the equilibrium dissociation constant of an inhibitor or competing ligand from its target.
